Where “and” joins values, the source holds several entries; their conditions need not be identical. Equal values may be shown once. Read-outs that look alike come from different tables or passages of the source.
What was measured:
[1] = tested on: human fibroblastoid M1 cells; assay: Comet assay, protection against H2O2-induced DNA damage; format: cell-based
Method: (§1) A single-cell gel electrophoresis (SCGE) assay, known as the “Comer” assay was performed to detect/quantify DNA damage by identifying DNA-strand breakage in individual cells, for example. The assay was performed using a kit commercially-available from Trevigen, Inc., of Gaithersburg, Md., as “CometAssay™.” See P. J. McCarthy et al. (1997) Mutagenesis 12:209-214; A. R. Collins et al. (2001) Biochem. Soc. Trans. 29:337-341. Sub-confluent cells were washed with phosphate buffered saline (PBS) and detached from the tissue culture flasks using a 0.05% trypsin solution. After centrifugation, the cells were washed and re-suspended in serum-free DMEM medium. The cells were divided into Eppendorf tubes (1.5 ml), and centrifuged at 2500 rotations per minutes (rpm) for ten minutes. Signal-modulating agents were added and samples were kept in a 37° C. incubator for thirty minutes. In some experiments, the cells were pre-incubated with various inhibitors for the indicated times at 37° C. At the end of the incubation period with signal-modulating chemicals, the cells were washed with PBS and treated with 100 μM H2O2 in 0.5 ml PBS on ice for twenty minutes. Following the hydrogen peroxide treatment, the cells were immediately microfuged for fifteen seconds. The cells were twice washed with cold PBS, and re-suspended at 1.0×10^5 cells/ml in ice-cold PBS. Five microliter cell suspension were each mixed with 50 μl molten LMAgarose and, thereafter, the mixtures were placed onto slides (CometSlide™).
(§2) The slides were placed at 4° C. in the dark for ten minutes and subsequently immersed in pre-chilled Lysis Solution at 4° C. for an additional thirty minutes. Following this incubation, excess buffer was tapped off from the slides. Subsequently, the slides were placed in a 50 ml Coplin jar containing alkali buffer for thirty minutes at room temperature in the dark and then immersed in 50 ml of TBE buffer for five minutes. The slides were then placed flat onto a gel tray submerged in TBE buffer in a horizontal electrophoresis apparatus, and aligned equidistant from the electrodes. Electrophoresis was performed at one volt per centimeter (cm) for ten minutes. Following this electrophoresis, the samples were fixed in 100% methanol for five minutes and 100% ethanol for five minutes. After drying, 50 μl of diluted SYBR Green Concentrate was added onto each circle of agarose. Comet tail fluorescence intensity was quantified with a Diagnostic Instruments digitized camera, mounted on a Nikon Eclipse E400 microscope, using Scion Image software. Quantification of comet fluorescence was performed as described in P. J. McCarthy et al. (1997) Mutagenesis 12:209-214. Each data point was derived from 30 to 100 individual cells. The data are shown either in arbitrary fluorescent units, or as % DNA damage protection (i.e., the percent decrement in tail fluorescence intensity with test reagent, relative to the intensity recorded in cells treated with hydrogen peroxide only)±S.E.M.
A dose response analysis of DNA damage protection also was performed to determine the efficacy of various doses of isopentenyl diphosphate versus 2-chloroadenosine. The analysis was carried out by pre-incubating human fibroblastoid M1 cells for thirty minutes with different concentrations of isopentenyl diphosphate or 2-chloroadenosine prior to incubating the cells with 100 μM H2O2 to induce oxidative stress. Following induction of oxidative stress, DNA damage was quantified using the Comet assay, as described above.

[2] = tested on: human fibroblastoid M1 cells; assay: Measurement of ROS (DCFH-DA fluorescence); format: cell-based; settings: for H2O2-induced ROS formation: 10 μM agent, 100 μM H2O2, FIG. 4
Method: The presence of reactive oxidative species was measured using commercially-available equipment in accordance with the manufacturer's instructions. Specifically, sub-confluent cells were detached from flasks using 0.05% trypsin and 5×10^3 human fibroblastoid M1 cells per well were seeded into 96-well plates (Falcon 35-3072). After an overnight culture, the cells were twice washed with DMEM-phenol red-free medium. The cells were subsequently treated with various concentrations of signal-modulating agents in the presence of 10 micromolar (μM) DCFH-DA in 100 microliters (μl) DMEM-phenol red-free medium at 37° C. for 30 minutes. This medium was replaced by a 100 μl DMEM-phenol red-free medium containing DCFH-DA and either 50 mU/ml GO, or 100 μM H2O2, and the cultures were subsequently incubated at 37° C. for 30 minutes. After thirty minutes incubation, the plates were read by CytoFluor™ 2300 (Millipore) at an excitation wavelength (Ex) of 480 nm and emission wavelength (Em) of 520 nm, or by Fusion-Alpha HT system (PerkinElmer Life Sciences, Boston, Mass.) at Ex 485 nm and Em 530 nm.
ROS levels were quantified using the Fusion-Alpha HT system, as described above.
To verify the efficiency of that pathway, DCFH-DA-loaded human fibroblastoid M1 cells were incubated with 10 μM 2-chloroadenosine for thirty minutes followed by incubation with 100 μM H2O2 for twenty minutes to induce oxidative stress. […] ROS levels were quantified using the CytoFluor™ 2300 system, as described above.

[3] = tested on: A1AR-transfected HEK293 cells; assay: Comet assay in A1AR-transfected HEK293 cells; format: cell-based, human
Method: A single-cell gel electrophoresis (SCGE) assay, known as the “Comer” assay was performed to detect/quantify DNA damage by identifying DNA-strand breakage in individual cells, for example. The assay was performed using a kit commercially-available from Trevigen, Inc., of Gaithersburg, Md., as “CometAssay™.” See P. J. McCarthy et al. (1997) Mutagenesis 12:209-214; A. R. Collins et al. (2001) Biochem. Soc. Trans. 29:337-341. Sub-confluent cells were washed with phosphate buffered saline (PBS) and detached from the tissue culture flasks using a 0.05% trypsin solution. After centrifugation, the cells were washed and re-suspended in serum-free DMEM medium. The cells were divided into Eppendorf tubes (1.5 ml), and centrifuged at 2500 rotations per minutes (rpm) for ten minutes. Signal-modulating agents were added and samples were kept in a 37° C. incubator for thirty minutes. In some experiments, the cells were pre-incubated with various inhibitors for the indicated times at 37° C. At the end of the incubation period with signal-modulating chemicals, the cells were washed with PBS and treated with 100 μM H2O2 in 0.5 ml PBS on ice for twenty minutes. Following the hydrogen peroxide treatment, the cells were immediately microfuged for fifteen seconds. The cells were twice washed with cold PBS, and re-suspended at 1.0×10^5 cells/ml in ice-cold PBS. […]
(§3) The slides were placed at 4° C. in the dark for ten minutes and subsequently immersed in pre-chilled Lysis Solution at 4° C. for an additional thirty minutes. […] Comet tail fluorescence intensity was quantified with a Diagnostic Instruments digitized camera, mounted on a Nikon Eclipse E400 microscope, using Scion Image software. Quantification of comet fluorescence was performed as described in P. J. McCarthy et al. (1997) Mutagenesis 12:209-214. […] The data are shown either in arbitrary fluorescent units, or as % DNA damage protection (i.e., the percent decrement in tail fluorescence intensity with test reagent, relative to the intensity recorded in cells treated with hydrogen peroxide only)±S.E.M. […]

[4] = tested on: human fibroblastoid M1 cells; assay: Measurement of cAMP levels (EIA kit); format: cell-based; settings: 10 μM agent, in presence of RO20-1724; FIG. 18
Method: Cyclic AMP levels were measured using a kit that is commercially-available from Amersham Biosciences of Piscataway, N.J., under the name “EIA Kit” (Cat. No. RPN225). Specifically, human fibroblastoid M1 cells were cultured overnight in 6-well tissue culture plates, 2×10^5 cells per well. Before stimulation, the cells were washed once with serum-free DMEM medium and incubated in 37° C. with 0.2 millimolar (mM) RO20-1724, a phosphodiesterase inhibitor, for fifteen minutes. Following this incubation period, 10 μM of either 2-chloroadenosine or isopentenyl diphosphate were added to each cell culture, and the cells cultures were thereafter maintained at 37° C. for the indicated time in the presence of phosphodiesterase inhibitor (RO20-1724). Determination of cAMP levels was performed with the EIA Kit in accordance with its manufacturer's instructions.
In another test, human fibroblastoid M1 cells also were stimulated with 10 μM 2-chloroadenosine or isopentenyl diphosphate, and cAMP levels were quantified.

[5] = tested on: human fibroblastoid M1 cells; assay: Comet assay, inhibition of 2CA- or IPP-mediated DNA damage protection by antagonists/inhibitors; format: cell-based; design: key to Mechanism of Signal Transduction: PKA / Mechanism of Signal Transduction: Mevalonate Pathway / Mechanism of Signal Transduction: GGT / Mechanism of Signal Transduction: FT / Mechanism of Signal Transduction: Proteasome: “+” indicates a dependence; “−” indicates independence
Method: as §1, §2
Specifically, […], human fibroblastoid M1 cells were incubated for thirty minutes in either H-89 or 8-bromoguanosine-3′,5′-cyclic monophosphate (8-Br-cGMP) (B), or for fifteen minutes in SNAP, at different concentrations. […] Following induction of oxidative stress, DNA damage was quantified using the Comet assay, as described above. Shown in FIGS. 14-16 are graphs illustrating the DNA damage protection as function of the molar concentration of H-89 (FIG. 14), 8-Br-cGMP (FIG. 15), and SNAP (FIG. 16).
In yet another test, human fibroblastoid M1 cells were pre-incubated for fifteen minutes with different concentrations of the A2bAR antagonist, enprofylline (Enpro).

[6] = tested on: A2bAR-transfected HEK293 cells; assay: Comet assay in A2bAR-transfected HEK293 cells; format: cell-based; settings: Homo sapiens, 100 μM H2O2, read-out: IC50, DNA damage protection
Method: (§4) A single-cell gel electrophoresis (SCGE) assay, known as the “Comer” assay was performed to detect/quantify DNA damage by identifying DNA-strand breakage in individual cells, for example. The assay was performed using a kit commercially-available from Trevigen, Inc., of Gaithersburg, Md., as “CometAssay™.” See P. J. McCarthy et al. (1997) Mutagenesis 12:209-214; A. R. Collins et al. (2001) Biochem. Soc. Trans. 29:337-341. Sub-confluent cells were washed with phosphate buffered saline (PBS) and detached from the tissue culture flasks using a 0.05% trypsin solution. After centrifugation, the cells were washed and re-suspended in serum-free DMEM medium. […]
as §3

[7] = tested on: A2aAR-transfected HEK293 cells; assay: Comet assay in A2aAR-transfected HEK293 cells; format: cell-based; settings: Homo sapiens, 100 μM H2O2, read-out: IC50, DNA damage protection
Method: as §4, §3

[8] = tested on: murine L-cell fibroblasts, human cells of lymphoid, fibroblastoid, myeloid, or neuronal lineages; assay: Antioxidative signaling in other cell lineages and species (data not shown); format: cell-based
[9] = tested on: p53-deficient cell lines HL60 and K562 and the nucleotide excision repair-deficient line XPA; assay: DNA damage protection in p53-deficient and nucleotide excision repair-deficient lines (data not shown); format: cell-based
[10] = dependence of DNA damage protection signaling

Nc1nc(Cl)nc2c1ncn2[C@@H]1O[C@H](CO)[C@@H](O)[C@H]1O [2CA, 2-chloroadenosine]
H2O2-mediated DNA damage ([1]; 10 μM agent, 100 μM H2O2 for twenty minutes, FIG. 5): prevented H2O2-mediated DNA damage
IC50 ([1]; Homo sapiens, AR agonists and isoprenyls, M1 cells, 100 μM H2O2, Comet assay, read-out: IC50 (pM), DNA damage protection): 2040 pM
IC50 ([1]; Homo sapiens, M1 cells pre-incubated thirty minutes, then 100 μM H2O2, FIGS. 6 and 7, read-out: IC50, DNA damage protection): 2040 pM
triggering of DNA damage protection ([1]; M1 cells, various concentrations, 100 μM H2O2): triggered DNA damage protection
H2O2-induced ROS formation [2]: equivalent inhibition of H2O2-induced ROS formation
DNA damage protection response ([3]; A1AR-transfected HEK293 cells, 100 μM H2O2): failed to transduce the antioxidative signal
c[AMP]i over time [4]: triggered an increase
Mechanism of Signal Transduction: FT [5, 10]: −
Mechanism of Signal Transduction: GGT [5, 10]: −
Mechanism of Signal Transduction: Mevalonate Pathway [5, 10]: −
Mechanism of Signal Transduction: PKA [5, 10]: +
Mechanism of Signal Transduction: Proteasome [5, 10]: −
IC50 [6]: 120 nM
IC50 [7]: 140 nM
response to antioxidative signaling ([8]; data not shown): all could respond
DNA damage protection induction ([9]; HL60, K562, XPA, data not shown): intact DNA damage protection induction

C=C(C)CCOP(=O)(O)OP(=O)(O)O [IPP, isopentenyl diphosphate]
H2O2-mediated DNA damage [1]: prevented H2O2-mediated DNA damage
potency relative to 2-chloroadenosine [1]: about 100 times
triggering of DNA damage protection [1]: triggered DNA damage-protection signaling
IC50 ([1]; read-out: IC50 (pM), DNA damage protection): 17 pM
IC50 ([1]; read-out: IC50, DNA damage protection): 17 pM and ~17 pM
H2O2-induced ROS formation [2]: equivalent inhibition of H2O2-induced ROS formation
ROS generation ([2]; different concentrations, 50 mU/ml GO for thirty minutes, FIG. 3): efficient at blocking ROS generation
DNA damage protection response [3]: responded readily
c[AMP]i over time [4]: did not trigger any meaningful increase
Mechanism of Signal Transduction: FT [5]: −
Mechanism of Signal Transduction: GGT [5]: +
Mechanism of Signal Transduction: Mevalonate Pathway [5]: +
Mechanism of Signal Transduction: PKA [5]: −
Mechanism of Signal Transduction: Proteasome [5]: +
response to antioxidative signaling [8]: all could respond
DNA damage protection induction [9]: intact DNA damage protection induction

Source: patent US20050215529A1, “Method of treating oxidative stress-associated conditions with isopentenyl diphosphate” (THE REGENTS OF THE UNIVERSITY OF MICHIGAN, priority 2004, published 2005)
